{
  "source": "patent US11344601B2",
  "about": "“Tumor microenvironment-related target TAK1 and application thereof in inhibition of tumor” (Shanghai Institutes for Biological Sciences, Chinese …, priority 2017, dated 2022)",
  "assay_type_in_all_cases": "cell-based, human",
  "key": {"[1]": {"tested_on": "NF-κB complex", "experiment": "NF-κB activation in bleomycin-treated stromal cells (nuclear translocation, luciferase reporter)", "protocol": "FIG. 22. The stromal cells pre-transduced with the NF-κB transcriptional luciferase reporter vector were treated with bleomycin and/or RAD001. The cells were collected on Day 7 and detected for the fluorescence signal intensity of the reporter vector.\nFIG. 32. Detection of NF-kB transcriptional activity based on the reporter vector. Stromal cells were treated with bleomycin along with the PI3K small molecule inhibitor LY294002 (1 μM), Akt inhibitor MK-2206 (100 nM), mTOR inhibitor RAD001 (50 nM), p38 inhibitor SB203580 (10 μM) and TAK1 inhibitor 5Z-7 (500 nM), respectively, and cell lysates were used for determining luciferase activity.\nThe […] vector pBABE-puro-IκBα-mut (Super repressor) containing two phosphorylated mutant sites of IKK at S32A and S34A on the IκBα protein encoding sequence were used for transfection of lentivirus-packing cell line phoenix. Lentiviruses were subsequently used to infect PSC27 stromal cell line, whereas 1 μg/ml puromycin was used to screen positive clones. As another method, 5 μm of the small molecule inhibitor Bay11-7082 (purchased from Selleck) was used for NF-κB activity control. Stromal cells were subsequently exposed to several different forms of cytotoxicity, with the resulting phenotype recorded in time, and the relevant gene expression analyzed. The resulted conditioned culture medium produced from cells processed in this way was collected for various detection of epithelial cells.\nEven so, is TAK1 activated indirectly by upstream DDR signaling associated with activation of a core transcription factor, NF-κB complex involved in the broad-spectrum expression of the SASP? The NF-κB complex was previously reported to be mediated by mono-ubiquitination of IκB kinase subunit γ (IKKγ) in cytoplasm. After isolating nucleus from cytoplasmic proteins using a kit, the inventor finds that TAK1 phosphorylation is associated with nuclear translocation of p50 and p65, the two main subunits of NF-κB complex (FIG. 4)."}, "[2]": {"tested_on": "PSC27 cells", "experiment": "DNA damage response foci, colony formation, cell cycle arrest and SA-β-Gal in PSC27 cells", "description": "Experimental Treatment In Vitro • 100 nM docetaxel (DTX), 100 nM paclitaxel (PTX), 200 nM vincristine (VCR), 50 μg/ml bleomycin (BLEO), 1 μM mitoxantrone (MIT), or 10 Gy ^137CS ionizating radiation (γ-radiation at 743 rad/min, RAD) was added to the culture medium when PSC27 cells grown to 80% (PSC27-Pre) to produce cell damage. After drug treatment for 6 hours, the cells were simply washed by PBS for 3 times and kept in the culture medium for 7 to 10 days, followed by subsequent experiments. […] Immunofluorescence and Histochemical Analysis • Mouse monoclonal antibody anti-phospho-Histone H2A.X (Ser139) (clone JBW301, Millipore) or mouse monoclonal antibody anti-Phosphor-53BP1 (Cat #sc-135748, Santa Cruz), and secondary antibody Alexa Fluor® 488 (or 594)-conjugated F(ab′)2 were added sequentially to slides on which cells were fixed. Nuclei were counterstained with 2 μg/ml of 4′,6-diamidino-2-phenylindole (DAPI). The most representative image was selected from the 3 observation fields for data analysis and result presentation. FV1000 laser scanning confocal microscopy (Olympus) was used to obtain cellular confocal fluorescence images to determine the extent of DNA damage. • Antibody anti-TAK1 used for histological IHC staining in clinical prostate, non-small cell lung cancer patients and breast cancer patients, was purchased from Proteintech, idib."}, "[3]": {"tested_on": "prostate cancer epithelial cells", "experiment": "Stromal-epithelial co-culture: PSC27 extracellular fluid on proliferation, migration, invasion of prostate cancer epithelial cells", "details": "extracellular fluid of bleomycin-damaged PSC27 treated with TAK1 inhibitor", "protocol": "c. Experimental Treatment In Vitro • 100 nM docetaxel (DTX), 100 nM paclitaxel (PTX), 200 nM vincristine (VCR), 50 μg/ml bleomycin (BLEO), 1 μM mitoxantrone (MIT), or 10 Gy ^137CS ionizating radiation (γ-radiation at 743 rad/min, RAD) was added to the culture medium when PSC27 cells grown to 80% (PSC27-Pre) to produce cell damage. After drug treatment for 6 hours, the cells were simply washed by PBS for 3 times and kept in the culture medium for 7 to 10 days, followed by subsequent experiments. 2. Plasmid Preparation and Lentiviral Transfection • Full-length human IKKα and Flag were cloned as a fusion protein between the restriction sites BamHI and XbaI in the expression vector pCR3.1. Full-length human mTOR and GST were cloned as a fusion protein between a pair of NotI restriction sites in the expression vector pcDNA3. Packaging cell line 293FT was used for cell transfection and lentivirus production. The sequences of small hairpin RNAs (shRNAs) for knocking out TRAF6 were as follows: • 5′-[…]-3′(SEQ ID NO: 1); and • 5′-[…]-3′ (SEQ ID NO: 2). • The sequences of small hairpin RNAs (shRNAs) for knocking out TAK1 were as follows: • 5′-[…]-3′(SEQ ID NO: 3); and • 5′-[…]-3′(SEQ ID NO: 4). • The sequences of small hairpin RNAs (shRNAs) for knocking out IL-1α were as follows: • 5′-[…]-3′(SEQ ID NO: 5); and • 5′-[…]-3′ (SEQ ID NO: 6). 3. Immunofluorescence and Histochemical Analysis • Mouse monoclonal antibody anti-phospho-Histone H2A.X (Ser139) (clone JBW301, Millipore) or mouse monoclonal antibody anti-Phosphor-53BP1 (Cat #sc-135748, Santa Cruz), and secondary antibody Alexa Fluor® 488 (or 594)-conjugated F(ab′)2 were added sequentially to slides on which cells were fixed. […] FV1000 laser scanning confocal microscopy (Olympus) was used to obtain cellular confocal fluorescence images to determine the extent of DNA damage. • Antibody anti-TAK1 used for histological IHC staining in clinical prostate, non-small cell lung cancer patients and breast cancer patients, was purchased from Proteintech, idib. […] Quantitative PCR for Measuring Gene Expression […]"}, "[4]": {"tested_on": "prostate cancer epithelial cell lines (BPH1, M12, PC3, DU145 and LNCaP)", "experiment": "Chemotherapy resistance of cancer cells conferred by extracellular fluid of damaged PSC27 stromal cells", "details": "stromal cells treated with TAK1 inhibitor", "protocol": "c. Experimental Treatment In Vitro • 100 nM docetaxel (DTX), 100 nM paclitaxel (PTX), 200 nM vincristine (VCR), 50 μg/ml bleomycin (BLEO), 1 μM mitoxantrone (MIT), or 10 Gy ^137CS ionizating radiation (γ-radiation at 743 rad/min, RAD) was added to the culture medium when PSC27 cells grown to 80% (PSC27-Pre) to produce cell damage. After drug treatment for 6 hours, the cells were simply washed by PBS for 3 times and kept in the culture medium for 7 to 10 days, followed by subsequent experiments. 2. Plasmid Preparation and Lentiviral Transfection • Full-length human IKKα and Flag were cloned as a fusion protein between the restriction sites BamHI and XbaI in the expression vector pCR3.1. Full-length human mTOR and GST were cloned as a fusion protein between a pair of NotI restriction sites in the expression vector pcDNA3. Packaging cell line 293FT was used for cell transfection and lentivirus production. […] FV1000 laser scanning confocal microscopy (Olympus) was used to obtain cellular confocal fluorescence images to determine the extent of DNA damage. • Antibody anti-TAK1 used for histological IHC staining in clinical prostate, non-small cell lung cancer patients and breast cancer patients, was purchased from Proteintech, idib. […] Quantitative PCR for Measuring Gene Expression […]"}},
  "data": [
    {"smiles": "COc1cc(O)c2c(c1)/C=C/C[C@H](O)[C@H](O)C(=O)/C=C\\C[C@H](C)OC2=O", "note": "[5Z-7, 5z-7-oxozeaenol]", "values": [
      {"measurement": "NF-κB transcriptional activity (reporter vector)", "setting": "[1]; bleomycin plus inhibitor, luciferase reporter", "result": "significantly reduced"},
      {"measurement": "phosphorylation of TAK1 and nuclear translocation of p50/p65", "setting": "[1]; bleomycin-treated stromal cells, cytosolic and nuclear proteins", "result": "significantly inhibited"},
      {"measurement": "inhibitory effect on NF-κB activation and IL-8 compared with the other inhibitors", "setting": "[1]; vs LY294002, MK-2206, SB203580", "result": "stronger inhibitory effect"},
      {"measurement": "colony forming ability of PSC27 cells", "setting": "[2]; bleomycin and/or 5Z-7, Day 7", "result": "not associated with the inhibition of TAK1 activity"},
      {"measurement": "single-cell level of DDR foci", "setting": "[2]; bleomycin-treated cells, presence or absence of inhibitor", "result": "did not change significantly"},
      {"measurement": "in vitro migration of prostate cancer epithelial cells promoted by stromal cell extracellular fluid", "setting": "[3]", "result": "significantly reduced"},
      {"measurement": "invasion of prostate cancer epithelial cells promoted by stromal cell extracellular fluid", "setting": "[3]", "result": "significantly weakened"},
      {"measurement": "proliferation of prostate cancer epithelial cells promoted by stromal cell extracellular fluid", "setting": "[3]", "result": "decreased significantly"},
      {"measurement": "resistance of cancer cells to docetaxel conferred by stromal cell extracellular fluid", "setting": "[4]; docetaxel", "result": "attenuate the acquired resistance"},
      {"measurement": "resistance of cancer cells to mitoxantrone conferred by stromal cell extracellular fluid", "setting": "[4]; mitoxantrone at IC50 concentration", "result": "significantly weakened"}
    ]}
  ]
}
